The values that follow come from US20200331904A1, “3-AMINO-[1,2,4]-TRIAZOLE DERIVATIVES AND THEIR USE FOR CONTROLLING UNDESIRED PLANT GROWTH” (Bayer CropScience Aktiengesellschaft, priority 2017, published 2020).

Common to all, as to assay type: in vivo
One assay has as its system Echinochloa crus-galli. As to the kind of experiment: Pre-emergence herbicidal efficacy, ECHCG. Particulars: Table B1, application rate 320 g/ha, scored visually after about 3 weeks vs untreated controls. The essentials:
(§1)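 Seeds were sown in pots and covered with soil; WP or EC formulations were sprayed onto the soil surface as aqueous suspension or emulsion with 0.5% additive. Pots were kept in a greenhouse, and after about 3 weeks damage was rated visually as percent versus untreated controls (100% = plants dead, 0% = like control).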

For another assay, the system named is Lolium rigidum. The experiment in a line: Pre-emergence herbicidal efficacy, LOLRI. Particulars: Table B1, application rate 320 g/ha, scored visually after about 3 weeks vs untreated controls. The procedure, abridged:
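Seeds sown in pots and covered with soil. Greenhouse-grown about 3 weeks, then visually scored as % activity vs untreated controls (100% = dead, 0% = like control).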

For another assay, the system named is Setaria viridis. As to the kind of experiment: Pre-emergence herbicidal efficacy, SETVI. Particulars: Table B1, application rate 320 g/ha, scored visually after about 3 weeks vs untreated controls. The procedure, abridged:
as §1

The next assay has as its system Abutilon theophrasti. The experiment in a line: Pre-emergence herbicidal efficacy, ABUTH. Particulars: Table B1, application rate 320 g/ha, scored visually after about 3 weeks vs untreated controls. The essentials:
as §1

The test system of the next assay is Amaranthus retroflexus. As to the kind of experiment: Pre-emergence herbicidal efficacy, AMARE. Particulars: Table B1, application rate 320 g/ha, scored visually after about 3 weeks vs untreated controls. The essentials: as §1
For another assay, the system named is Matricaria inodora. As to the kind of experiment: Pre-emergence herbicidal efficacy, MATIN. Particulars: Table B1, application rate 320 g/ha, scored visually after about 3 weeks vs untreated controls. The procedure, abridged:
as §1

A further assay relates to Polygonum convolvulus. As to the kind of experiment: Pre-emergence herbicidal efficacy, POLCO. Particulars: Table B1, application rate 320 g/ha, scored visually after about 3 weeks vs untreated controls. The procedure, abridged:
as §1

The next assay deals with Stellaria media. The experiment in a line: Pre-emergence herbicidal efficacy, STEME. Particulars: Table B1, application rate 320 g/ha, scored visually after about 3 weeks vs untreated controls. The essentials:
as §1

Assay [1] deals with Viola tricolor. The experiment in a line: Pre-emergence herbicidal efficacy, VIOTR. Particulars: Table B1, application rate 320 g/ha, scored visually after about 3 weeks vs untreated controls. The essentials: as §1
Assay [2] deals with Veronica persica. As to the kind of experiment: Pre-emergence herbicidal efficacy, VERPE. Particulars: Table B1, application rate 320 g/ha, scored visually after about 3 weeks vs untreated controls. The essentials: as §1
Assay [3] deals with Viola tricolor. As to the kind of experiment: Post-emergence herbicidal efficacy, VIOTR. Particulars: application rate 320 g/ha, rated visually after about 3 weeks (Table B7). The source says:
(§2) ABUTH: Abutilon theophrasti ALOMY: Alopecurus myosuroides AMARE: Amaranthus retroflexus AVEFA: Avena fatua CYPES: Cyperus esculentus ECHCG: Echinochloa crus-galli LOLMU: Lolium multiflorum MATIN: Matricaria inodora PHBPU: Ipomoea purpurea POLCO: Polygonum convolvulus SETVI: Setaria viridis STEME: Stellaria media VERPE: Veronica persica VTOTR: Viola tricolor
(§3) C.2 Post-Emergence Herbicidal Action and Crop Plant Compatibility
(§4) Seeds of monocotyledonous and dicotyledonous weeds and crop plants are placed in sandy loam in plastic or organic planting pots, covered with soil and cultivated in a greenhouse under controlled growth conditions. 2 to 3 weeks after sowing, the test plants are treated at the one-leaf stage. The compounds of the invention, formulated in the form of wettable powders (WP) or as emulsion concentrates (EC), are then sprayed onto the green parts of the plants as aqueous suspension or emulsion with addition of 0.5% additive at a water application rate of […] (converted). After the test plants had been kept in the greenhouse under optimum growth conditions for about 3 weeks, the activity of the preparations is rated visually in comparison to untreated controls. For example, 100% activity=the plants have died, 0% activity=like control plants.

Assay [4] has as its system Veronica persica. As to the kind of experiment: Post-emergence herbicidal efficacy, VERPE. Particulars: application rate 320 g/ha, rated visually after about 3 weeks (Table B7).
Source text: as §2, §3, §4

SMILES strings stand for the structures.

Consider `Cc1ccc2c(c1)[C@H](Nc1nc3n(n1)CCN(S(C)(=O)=O)C3)[C@@H](C)C2` [Example I-190], for which, in the assay with Echinochloa crus-galli, the “Herbicidal efficacy against ECHCG” value worked out at 100%. Further, the “Herbicidal efficacy against LOLRI” value in the assay with Lolium rigidum was determined as 100%. The “Herbicidal efficacy against SETVI” value in the assay with Setaria viridis amounted to 100%. Besides, the “Herbicidal efficacy against ABUTH” value in the assay on Abutilon theophrasti is 100%. Moreover, in the assay with Amaranthus retroflexus, the “Herbicidal efficacy against AMARE” value came to 100%. The “Herbicidal efficacy against MATIN” value in the assay on Matricaria inodora is reported as 100%. The “Herbicidal efficacy against POLCO” value in the assay with Polygonum convolvulus was 100%. Besides, the “Herbicidal efficacy against STEME” value in the assay with Stellaria media was 100%. Also, the “Herbicidal efficacy against VIOTR” value in the assay with Viola tricolor [1] is 100%; with Viola tricolor [3] it was 80%. The results for the “Herbicidal efficacy against VERPE” value in the assay on Veronica persica [2] and in the assay on Veronica persica [4] were 100% and 80%, respectively.

As to `Cc1ccc2c(c1)C(Nc1nc3n(n1)CCCC[S+]3[O-])CC2` (stereo not drawn) [Example I-245], the “Herbicidal efficacy against ECHCG” value with Echinochloa crus-galli was found to be 100%. For the same compound, the “Herbicidal efficacy against LOLRI” value in the assay on Lolium rigidum is reported as 100%. In addition, in the assay with Setaria viridis, the “Herbicidal efficacy against SETVI” value is on record as 100%. Moreover, the “Herbicidal efficacy against ABUTH” value in the assay with Abutilon theophrasti came to 100%. In the assay on Amaranthus retroflexus, the “Herbicidal efficacy against AMARE” value worked out at 100%. In addition, the “Herbicidal efficacy against MATIN” value with Matricaria inodora is 100%. The “Herbicidal efficacy against POLCO” value with Polygonum convolvulus was determined as 100%. The “Herbicidal efficacy against STEME” value with Stellaria media was 100%. In addition, the “Herbicidal efficacy against VIOTR” value came out at 100% with Viola tricolor [1] and 80% in the assay with Viola tricolor [3]. Further, the “Herbicidal efficacy against VERPE” value in the assay with Veronica persica [2] came out at 100%; in the assay with Veronica persica [4], 90%.

In the case of `CC(=O)N1CCn2nc(N[C@@H]3CCCc4ccccc43)nc2C1` [Example I-163], in the assay on Echinochloa crus-galli, the “Herbicidal efficacy against ECHCG” value was 100%. In addition, the “Herbicidal efficacy against LOLRI” value with Lolium rigidum came to 80%. The “Herbicidal efficacy against SETVI” value with Setaria viridis was found to be 100%. Further, the “Herbicidal efficacy against ABUTH” value in the assay with Abutilon theophrasti is recorded as 100%. For the same compound, the “Herbicidal efficacy against AMARE” value in the assay with Amaranthus retroflexus was 100%. Moreover, the “Herbicidal efficacy against MATIN” value in the assay on Matricaria inodora is on record as 100%. In addition, the “Herbicidal efficacy against POLCO” value in the assay with Polygonum convolvulus worked out at 100%. Moreover, the “Herbicidal efficacy against STEME” value in the assay with Stellaria media came to 100%. The “Herbicidal efficacy against VIOTR” value with Viola tricolor [1] is 100%; in the assay on Viola tricolor [3] it was 80%. The “Herbicidal efficacy against VERPE” value is 100% in the assay on Veronica persica [2] and 90% with Veronica persica [4].

As for `CC(=O)N1CCn2nc(N[C@@H]3CCc4ccc(C)cc43)nc2C1` [Example I-173], the “Herbicidal efficacy against ECHCG” value with Echinochloa crus-galli was 100%. Further, the “Herbicidal efficacy against LOLRI” value with Lolium rigidum came out at 100%. Besides, in the assay on Setaria viridis, the “Herbicidal efficacy against SETVI” value is 100%. Moreover, the “Herbicidal efficacy against ABUTH” value in the assay with Abutilon theophrasti was found to be 100%. Further, in the assay with Amaranthus retroflexus, the “Herbicidal efficacy against AMARE” value amounted to 100%. The “Herbicidal efficacy against MATIN” value in the assay on Matricaria inodora was 100%. The “Herbicidal efficacy against POLCO” value in the assay with Polygonum convolvulus worked out at 100%. Besides, in the assay on Stellaria media, the “Herbicidal efficacy against STEME” value was 100%. The “Herbicidal efficacy against VIOTR” value in the assay with Viola tricolor [1] was found to be 100%; in the assay with Viola tricolor [3], 80%. The figures for the “Herbicidal efficacy against VERPE” value with Veronica persica [2] and in the assay on Veronica persica [4] were 100% and 90%, respectively.

Regarding `CC(=O)N1CCn2nc(NC3c4cc(C)ccc4CC3C)nc2C1` (stereo not drawn) [Example I-165], the “Herbicidal efficacy against ECHCG” value in the assay on Echinochloa crus-galli was 100%. In addition, in the assay with Lolium rigidum, the “Herbicidal efficacy against LOLRI” value turned out to be 100%. For the same compound, the “Herbicidal efficacy against SETVI” value in the assay on Setaria viridis is recorded as 100%. Besides, in the assay with Abutilon theophrasti, the “Herbicidal efficacy against ABUTH” value was determined as 100%. Further, in the assay with Amaranthus retroflexus, the “Herbicidal efficacy against AMARE” value is given as 100%. Also, the “Herbicidal efficacy against MATIN” value in the assay on Matricaria inodora amounted to 100%. Besides, the “Herbicidal efficacy against POLCO” value in the assay on Polygonum convolvulus came to 100%. In addition, the “Herbicidal efficacy against STEME” value in the assay with Stellaria media is recorded as 100%. The “Herbicidal efficacy against VIOTR” value with Viola tricolor [1] came out at 100%; in the assay with Viola tricolor [3], 80%. The “Herbicidal efficacy against VERPE” value with Veronica persica [2] came out at 100%; in the assay on Veronica persica [4], 90%.
